Our source for the IC50, EC50 and AC50 values is ChEMBL document CHEMBL1201862, “PubChem BioAssay data set” (2004).

Calls of active or inactive are those of the source. Some results are limits rather than exact numbers.

Test [1] addresses Bcl-2-like protein 1 (Homo sapiens, UniProt Q07817). Nature of the test: blockers of BCLXL peptide binding – biochemical, fluorescence polarization, 1536-well, selectivity assay for MCL1 inhibitor project, dose response (AID 2218). On the technique in general: Polarisation of emitted light reports the rotation of a fluorescent probe.
The target of test [2] is Induced myeloid leukemia cell differentiation protein Mcl-1 (Homo sapiens, UniProt Q07820). Description: blockers of MCL1 binding to BIM peptide – biochemical, fluorescence polarization, BIM-BH3 peptide, 1536-well, dose response (AID 2217).
Test [3] concerns the target Large T antigen (Simian virus 40, UniProt P03070). In kind it is functional, Betapolyomavirus macacae.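 Further: Confirmatory-stage PubChem screen for compounds that inhibit SV40 T antigen.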
The target in test [4] is T1, Protein Tat (Human immunodeficiency virus type 1 group M subtype B (isolate HXB2)(HIV-1), UniProt P04608).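 Further: tat binding to TAR RNA read out by fluorescence polarization.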
T1 sequence (P04608 whole entry): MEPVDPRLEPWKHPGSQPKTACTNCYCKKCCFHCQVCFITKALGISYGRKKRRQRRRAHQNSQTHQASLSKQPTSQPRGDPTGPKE
The class given is functional.

Test [5] has as its target T2, Short transient receptor potential channel 4 (Mus musculus, UniProt Q9QUQ5).
T2 sequence (Q9QUQ5 whole entry): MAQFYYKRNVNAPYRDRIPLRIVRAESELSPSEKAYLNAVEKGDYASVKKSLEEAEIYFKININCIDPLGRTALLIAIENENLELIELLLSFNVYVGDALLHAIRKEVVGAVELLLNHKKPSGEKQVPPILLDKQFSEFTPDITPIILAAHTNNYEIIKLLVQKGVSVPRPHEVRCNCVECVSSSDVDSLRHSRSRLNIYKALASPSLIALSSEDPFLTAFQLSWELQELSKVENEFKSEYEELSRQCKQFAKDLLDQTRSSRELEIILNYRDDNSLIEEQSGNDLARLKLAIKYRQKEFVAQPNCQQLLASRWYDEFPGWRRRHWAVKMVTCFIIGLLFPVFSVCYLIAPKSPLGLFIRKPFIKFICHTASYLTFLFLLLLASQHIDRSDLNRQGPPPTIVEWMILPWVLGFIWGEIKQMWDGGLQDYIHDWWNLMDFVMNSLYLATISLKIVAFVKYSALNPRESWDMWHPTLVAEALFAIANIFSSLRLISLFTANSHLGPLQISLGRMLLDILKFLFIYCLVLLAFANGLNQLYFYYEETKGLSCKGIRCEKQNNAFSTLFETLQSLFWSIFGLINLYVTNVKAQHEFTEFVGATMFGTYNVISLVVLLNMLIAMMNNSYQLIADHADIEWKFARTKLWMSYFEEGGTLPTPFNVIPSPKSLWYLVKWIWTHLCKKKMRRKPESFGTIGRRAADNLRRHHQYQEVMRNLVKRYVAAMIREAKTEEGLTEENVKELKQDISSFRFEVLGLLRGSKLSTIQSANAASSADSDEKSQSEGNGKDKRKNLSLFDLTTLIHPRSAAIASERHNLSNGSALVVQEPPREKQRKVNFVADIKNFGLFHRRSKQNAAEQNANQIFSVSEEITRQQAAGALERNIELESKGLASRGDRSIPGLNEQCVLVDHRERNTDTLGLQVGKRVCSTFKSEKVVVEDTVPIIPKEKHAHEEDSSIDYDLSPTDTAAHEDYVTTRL
Description: block of DAMGO-driven TRPC4 calcium entry – cell-based, HEK293 TRPC4/mu-opioid, Fluo-4 calcium, dose response (AID 434942).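 Further: potency of inhibitors blocking the TRPC4 calcium response.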 In kind it is functional.

Test [6] relates to Streptococcus. Description: GAS UMAA2166 growth inhibition – luminescence, BacTiterGlo, counter-screen for streptokinase expression inhibitor project, dose response (AID 1915).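 Further: potency for reduction of bacterial viability or growth.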 The class given is functional, organism-based.
Test [7] can be described thus: Trypanosoma cruzi growth suppression in host cells – NIH3T3 host cells, beta-gal luminescence, confirmation (AID 2044).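 Further: intracellular parasites grown in NIH/3T3 mouse fibroblasts as host cells; luminescent beta-galactosidase reporter signal from transgenic T. cruzi replicating inside host cells; inhibitors lower the luminescence signal.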 In kind it is functional, cell-based.
Test [8] in a line: Luminescence Cell-Based Dose Response HTS to Identify Inhibitors of 5'UTR Stem-Loop Driven Prion Protein mRNA Translation in H4 Neuroglioblastoma Cells. [Related pubchem assays: 1827 (Project Summary), 1813 (Primary HTS)]. In kind it is functional.
Test [9] can be described thus: HPDE-C7 pancreatic duct cell viability loss – fluorescence, HTS (AID 430). The class given is functional, cell-based. To be noted: Homo sapiens.
The nature of test [10]: luciferase reporter signal suppression in cells – H4 neuroglioma cells, luminescence, dose response (AID 1990). The class given is functional, cell-based. Background: In a reporter assay the amount or activity of a reporter protein is the signal.
For test [11], the system named is Streptococcus sp. 'group A'. Nature of the test: Streptococcus pyogenes SK(-)GAS viability under kanamycin – luminescence, BacTiterGlo, confirmation, counter-screen for streptokinase expression inhibitor project, dose response (AID 1900). In kind it is functional, organism-based.
The target in test [12] is Nonstructural protein 1 (Influenza A virus, UniProt Q194T2). In kind it is functional, Influenza A virus (A/California/07/2009(H1N1)).
The nature of test [13]: viability of PTEN-deleted HCT116 cells – cell-based, HCT116 PTEN knockout, dose response (AID 1047).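 Further: HCT116 colon tumor cells with PTEN knocked out; cells exposed to compound for 60 hours before readout; potency for loss of cell viability measured by luminescence.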 In kind it is functional.
Test [14] addresses Cytochrome P450 2C19 (Homo sapiens, UniProt P33261). Description: Cytochrome panel assay with activity outcomes. Panel member name: p450-cyp2c19 Compounds with AC50 equal or less than 10 uM are considered active. The class given is functional. To be noted: read-out: AC50.
In test [15] the target is T3, Mannose-6-phosphate isomerase (Homo sapiens, UniProt P34949).
T3 sequence (P34949 whole entry): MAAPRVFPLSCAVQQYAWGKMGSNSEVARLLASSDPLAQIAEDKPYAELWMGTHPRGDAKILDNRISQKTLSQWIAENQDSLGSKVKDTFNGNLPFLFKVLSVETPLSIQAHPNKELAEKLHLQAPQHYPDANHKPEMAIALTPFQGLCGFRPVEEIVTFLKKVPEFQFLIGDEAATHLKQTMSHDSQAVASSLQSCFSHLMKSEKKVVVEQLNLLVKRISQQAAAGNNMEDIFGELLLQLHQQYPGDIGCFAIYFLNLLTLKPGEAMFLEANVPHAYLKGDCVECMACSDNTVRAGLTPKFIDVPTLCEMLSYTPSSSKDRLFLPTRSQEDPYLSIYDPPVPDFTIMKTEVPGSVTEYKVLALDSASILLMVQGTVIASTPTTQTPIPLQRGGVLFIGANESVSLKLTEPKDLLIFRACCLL
Nature of the test: MPI inhibition at elevated mannose 6-phosphate – biochemical, fluorescence intensity, high mannose 6-phosphate, primary screen (AID 1220).

The nature of test [16]: viability loss of HPDE-C7K cells – cell-based, fluorescence, HTS, primary screen (AID 431). To be noted: Homo sapiens. In kind it is functional.
Test [17] addresses Heat shock protein HSP 90-alpha (Homo sapiens, UniProt P07900). The class given is functional, organism-based.
Test [18] in a line: alpha-synuclein stem-loop luciferase translation blockers – H4 neuroglioma cells, luminescence, confirmation (AID 1988). The class given is functional, cell-based.
Test [19] can be described thus: NIH3T3 cell viability loss – ATP luminescence, mouse fibroblasts, counter-screen, dose response (AID 2010).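 Further: cells exposed to compound for about 90 hours before reading.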 The class given is functional, cell-based. (A counterscreen serves to expose hits that act by an unwanted route or on another target.)
Test [20] in a line: viability of HCT116 lacking mutant beta-catenin – cell-based, human colon tumor, dose response (AID 1045).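 Further: HCT116 colon tumor cells with beta catenin knocked out; cells exposed to compound for 60 hours.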 The class given is functional.

Chain of Induced myeloid leukemia cell differentiation protein Mcl-1 (Q07820 whole entry): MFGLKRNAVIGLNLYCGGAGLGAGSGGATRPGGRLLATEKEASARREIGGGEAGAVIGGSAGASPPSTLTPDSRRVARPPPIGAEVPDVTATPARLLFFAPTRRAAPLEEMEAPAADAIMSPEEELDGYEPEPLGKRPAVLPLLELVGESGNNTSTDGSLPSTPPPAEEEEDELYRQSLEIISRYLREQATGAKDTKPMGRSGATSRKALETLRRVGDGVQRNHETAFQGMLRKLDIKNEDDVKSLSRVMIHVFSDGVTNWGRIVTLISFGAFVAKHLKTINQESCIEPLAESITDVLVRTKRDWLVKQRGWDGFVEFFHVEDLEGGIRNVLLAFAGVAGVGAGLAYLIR
Chain of Bcl-2-like protein 1 (Q07817 whole entry): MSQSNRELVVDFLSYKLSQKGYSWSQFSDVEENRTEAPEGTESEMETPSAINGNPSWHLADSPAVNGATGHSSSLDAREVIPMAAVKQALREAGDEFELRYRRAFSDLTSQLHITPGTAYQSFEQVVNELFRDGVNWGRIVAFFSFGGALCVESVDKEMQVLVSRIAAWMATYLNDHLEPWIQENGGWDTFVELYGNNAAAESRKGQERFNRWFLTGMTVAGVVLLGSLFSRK
Chain of Large T antigen (P03070 whole entry): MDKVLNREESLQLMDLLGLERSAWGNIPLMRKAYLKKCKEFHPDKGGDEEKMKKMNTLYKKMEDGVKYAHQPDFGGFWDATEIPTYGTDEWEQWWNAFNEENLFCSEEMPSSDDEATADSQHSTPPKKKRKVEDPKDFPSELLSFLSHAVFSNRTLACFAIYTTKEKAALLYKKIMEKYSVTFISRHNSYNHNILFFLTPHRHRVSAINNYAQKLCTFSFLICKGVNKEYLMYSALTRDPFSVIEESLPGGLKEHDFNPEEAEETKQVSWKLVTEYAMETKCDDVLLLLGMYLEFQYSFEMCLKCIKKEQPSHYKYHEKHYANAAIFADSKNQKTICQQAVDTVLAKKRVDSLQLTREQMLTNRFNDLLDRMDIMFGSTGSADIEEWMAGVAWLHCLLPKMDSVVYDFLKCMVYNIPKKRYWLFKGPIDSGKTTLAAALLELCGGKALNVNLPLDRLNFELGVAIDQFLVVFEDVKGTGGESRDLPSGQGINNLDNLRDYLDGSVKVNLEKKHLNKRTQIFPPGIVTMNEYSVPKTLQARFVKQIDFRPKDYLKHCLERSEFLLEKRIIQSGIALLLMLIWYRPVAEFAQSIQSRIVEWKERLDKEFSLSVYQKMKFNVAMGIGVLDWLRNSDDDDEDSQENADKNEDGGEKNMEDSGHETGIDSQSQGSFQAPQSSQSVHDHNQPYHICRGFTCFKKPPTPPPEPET
Chain of Cytochrome P450 2C19 (P33261 whole entry): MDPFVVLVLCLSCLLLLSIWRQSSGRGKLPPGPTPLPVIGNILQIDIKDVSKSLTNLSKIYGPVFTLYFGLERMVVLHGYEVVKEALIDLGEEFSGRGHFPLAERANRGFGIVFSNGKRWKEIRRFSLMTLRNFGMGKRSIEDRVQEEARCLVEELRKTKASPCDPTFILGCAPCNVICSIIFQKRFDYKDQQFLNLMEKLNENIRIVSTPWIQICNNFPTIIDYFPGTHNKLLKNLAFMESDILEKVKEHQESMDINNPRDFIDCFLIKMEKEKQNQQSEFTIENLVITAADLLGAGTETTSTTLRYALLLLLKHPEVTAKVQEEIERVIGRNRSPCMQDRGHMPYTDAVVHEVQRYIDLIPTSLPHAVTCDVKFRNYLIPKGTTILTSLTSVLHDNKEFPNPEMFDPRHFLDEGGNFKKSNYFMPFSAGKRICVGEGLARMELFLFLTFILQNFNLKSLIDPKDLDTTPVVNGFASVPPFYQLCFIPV
Chain of Nonstructural protein 1 (Q194T2 whole entry): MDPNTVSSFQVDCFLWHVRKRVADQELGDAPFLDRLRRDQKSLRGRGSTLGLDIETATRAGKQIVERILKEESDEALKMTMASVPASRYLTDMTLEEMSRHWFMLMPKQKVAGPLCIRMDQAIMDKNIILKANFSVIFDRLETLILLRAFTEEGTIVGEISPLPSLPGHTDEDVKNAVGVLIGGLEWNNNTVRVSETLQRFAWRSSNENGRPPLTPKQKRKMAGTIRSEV

With `O=C1NC(=O)N(c2cccc(Cl)c2)C(=O)/C1=C\c1ccc(Sc2nc3ccccc3[nH]2)o1`, the IC50 (usually the concentration needed to halve the response being measured) in test [1] is > 12.1 µM (not active); in test [2], 8.64 µM (active); in test [3] it was 66.2 µM (active); in test [4], > 100 µM (active).
With `Oc1c(CN2CCCCC2)cc(Br)c2cccnc12`, the concentration giving a half-maximal response (EC50) (in general, the midpoint of the concentration-response curve) in [5] was 4.22 µM (active); in test [6] it was 10.7 µM (active); in test [7] it was 1.16 µM (active); in test [8], 1.63 µM (active); in test [9], 7.75 µM (active); in test [10], 5.98 µM (active). Moreover, the EC50 in [11] was 3.42 µM (active); in test [13], 1.95 µM (active); in test [16] it was 10.4 µM (active); in test [18], 4.28 µM (active); in test [19], 6.38 µM (active); in [20], 1.64 µM (active). Moreover, the half-maximal inhibitory concentration (IC50) in test [12] is 3.55 µM (active); in [15], 15 µM (active). The half-maximal activity concentration (AC50) (as a rule, the concentration at which the activity in the assay is half-maximal) in test [14] was 39.8 µM (inconclusive); in [17], 6.04 µM (active).
Take `Cc1ccccc1OCC(=O)OCC(=O)Nc1ncc(Cl)c(C)c1Cl`: the IC50 in test [1] is 30.4 µM (not active); in test [2], 15.7 µM (not active).
